# Reference: BindingDB's records for doi:10.3109/14756366.2010.482529 (Yonsei University, 2010)
# Target: T1, Polyphenol oxidase 1 (White button mushroom, UniProt Q00024)
# T1 sequence (Q00024 whole entry): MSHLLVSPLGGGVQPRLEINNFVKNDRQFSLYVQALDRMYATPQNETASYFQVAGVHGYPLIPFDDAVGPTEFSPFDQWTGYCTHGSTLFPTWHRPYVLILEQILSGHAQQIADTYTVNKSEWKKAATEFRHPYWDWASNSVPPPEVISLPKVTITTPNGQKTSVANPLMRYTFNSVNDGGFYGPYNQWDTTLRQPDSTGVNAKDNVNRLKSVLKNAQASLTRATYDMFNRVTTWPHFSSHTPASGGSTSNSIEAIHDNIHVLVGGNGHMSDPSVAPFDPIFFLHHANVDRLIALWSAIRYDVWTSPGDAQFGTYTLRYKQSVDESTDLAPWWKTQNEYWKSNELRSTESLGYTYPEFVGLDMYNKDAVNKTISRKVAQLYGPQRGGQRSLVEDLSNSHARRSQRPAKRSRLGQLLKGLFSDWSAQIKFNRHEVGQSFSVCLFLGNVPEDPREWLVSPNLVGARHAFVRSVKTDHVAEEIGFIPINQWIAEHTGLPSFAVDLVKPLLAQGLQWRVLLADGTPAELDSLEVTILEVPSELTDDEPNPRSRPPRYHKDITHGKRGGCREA
# Assay: In Vitro Tyrosinase Inhibition Assay
# Conditions: pH 6.8; 25 °C
# Procedure: Tyrosinase inhibition assays were performed in a 96-well microplate format using the SpectraMax 340 microplate reader (Molecular Devices, CA) according to the method developed by Hearing [Khan et al., Pure Appl. […] First the samples were screened for the o-diphenolase inhibitory activity of mushroom tyrosinase (Lyophilised, ≥2000 units/mg, Sigma, […], USA) using L-3,4-dihydroxyphenylalanine (L-DOPA) (Sigma) as substrate. All the active samples from the preliminary screening were subjected to half maximal inhibitory concentration (IC50) studies. The samples were dissolved in methanol/DMSO to a final concentration of 0.5%. […] Then the L-DOPA (0.5 mM) was added to the reaction mixture and the reaction was monitored by measuring the change in absorbance at 475 nm (at 37°C) due to the formation of the DOPA chrome for 10 min.
row,SMILES,IC50
1,CC(C)=CCOC(=O)c1ccccc1 [3-Methyl-2-butenylbenzoate (1)],83.4 µM
2,"O=C(NCCO)c1cc([N+](=O)[O-])cc([N+](=O)[O-])c1 [N-(2-Hydroxy-ethyl)-3,5-dinitro-benzamide (7)]",1.09 µM
3,N[C@@H](Cn1ccc(=O)c(O)c1)C(=O)O,3.68 µM
4,CC(C)=CCOC(=O)c1ccc(O)cc1 [3-Methyl-2-butenyl-4-hydroxybenzoate (2)],14.8 µM
5,O=C(Oc1ccc([N+](=O)[O-])cc1)c1ccc([N+](=O)[O-])cc1C(F)(F)F [4-Nitro-phenyl-(4-nitro-2-trifluoromethyl)-benzoate (6)],29.7 µM
6,"O=C(NCCBr)c1cc([N+](=O)[O-])cc([N+](=O)[O-])c1 [N-(2-Bromo-ethyl)-3,5-dinitro-benzamide (8)]",3.08 µM
7,CCNC(=O)c1ccccc1 [N-Ethyl-benzamide (10)],11.8 µM
8,"Cc1ccc(C(=O)N(C)O)cc1 [N-Hydroxy-4,N-dimethyl-benzamide (9)]",2.09 µM
